Source: patent US11666640B2, “Glucose oxidase compositions as a neonate anticonvulsant” (PENN STATE RESEARCH FOUNDATION, priority 2018, dated 2023)
Entries after “also recorded” stand apart in the source; their conditions may differ.

Columns and labels:
[1] = test system: PTZ-induced seizure behavior; assay: Seizure behavior test (Racine score) after PTZ; assay type: in vivo, mouse; details: PTZ 50 mg/kg i.p., adult mice
Procedure: Male mice were divided into three groups: vehicle control group (saline, n=9), D-gluconic acid sodium at 1 g/kg group (n=10), and D-gluconic acid sodium at 2 g/kg group (n=11). PTZ (50 mg/kg) was intraperitoneally administered 1 hr after drug treatment. After PTZ injection, the behavior was monitored and observed for 1 hr. The seizure behavior was classified according to Racine Score: stage 0, no response; stage 1, facial twitching; stage 2, nod; stage 3, forelimb clonic, tail upright; stage 4, stand with forelimbs clonic; stage 5, stand and fall, jump, general clonic seizure, general clonic and tonic seizure or death. Racine et al., “Modification of seizure activity by electrical stimulation. 3. Mechanisms” Electroencephalogr Clin Neurophysiol 32:295-299 (1972).

[2] = test system: cultured cortical neurons; assay: Epileptiform burst activity in cultured cortical neurons (whole-cell patch-clamp); assay type: cell-based, mouse
Procedure: Mouse cortical neurons were prepared from newborn C57BL/6 mice as previously described. Qi et al., “Cyclothiazide induces robust epileptiform activity in rat hippocampal neurons both in vitro and in vivo” The Journal Of Physiology 571:605-618 (2006). Briefly, the newborn mouse cerebral cortices were dissected out in ice-cold HEPES-buffered saline solution, washed and digested with 0.05% trypsin-EDTA at 37° C. for 20 min. After deactivation of trypsin with serum-containing medium, cells were centrifuged, resuspended, and seeded on a monolayer of cortical astrocytes at a density of 10,000 cells/cm^2 in 24-well plates. The neuronal culture medium contained MEM (500 ml, Invitrogen), 5% fetal bovine serum (Atlanta Biologicals), 10 ml B-27 supplement (Invitrogen), 100 mg NaHCO3, 2 mM Glutamax (Invitrogen), and 25 units/ml penicillin & streptomycin. AraC (4 μM, Sigma) was added to inhibit the excessive proliferation of astrocytes. Cell cultures were maintained in a 5% CO2-humidified incubator at 37° C. for 14-21 days.
The cultured neurons were placed in the recording chamber with continuous perfusion of the bath solution consisting of (mM): 128 NaCl, 10 Glucose, 25 HEPES, 5 KCl, 2 CaCl2, 1 MgSO4, pH 7.3 adjusted with NaOH, and osmolarity ˜300 mOsm. For recording spontaneous firing under current clamp mode, pipettes were filled with an internal solution containing (in mM): 125 K-gluconate, 5 Na-phosphocreatine, 5 EGTA, 10 KCl, 10 HEPES, 4 Mg-ATP, 0.3 Na-GTP, 280-290 mOsm, pH 7.3 adjusted with KOH. Epileptiform activity in cultured neurons was induced either by 10 μM CTZ for 24 h, or 1 μM KA for 2 h, or 50 μM 4-AP for 2 h. The burst activity was defined as previously described. Qi et al., “Cyclothiazide induces robust epileptiform activity in rat hippocampal neurons both in vitro and in vivo” The Journal Of Physiology 571:605-618 (2006). In brief, at least five consecutive action potentials overlaying on top of the large depolarization shift (≥10 mV depolarization and ≥300 ms in duration).

[3] = test system: KA-induced epileptic burst activities; assay: KA-induced epileptic burst activity in adult mice, EEG recording; assay type: in vivo, mouse; details: KA 10 mg/kg i.p., NaGcA 2 g/kg i.p., sodium salt
Procedure: To test the in vivo anti-epilepsy effects of gluconate in neonatal and adult rodents, P8-12 Sprague-Dawley rats or 2-month old male C57BL/6 mice were deeply anesthetized with pentobarbital sodium (50 mg/kg for neonatal rat and 100 mg/kg for adult mice, intraperitoneal injection). Two stainless steel screws (1 mm in diameter) were inserted in the skull above the cortex as EEG recording electrodes, one ground electrode as well as one reference electrode were located +1.8 mm anterior to bregma, ±0.5 mm lateral to the midline, and 1 mm below the cortical surface. All electrodes were attached to a micro-connector and fixed onto the skull with dental cement. After surgery, neonatal rats were returned to their mothers and allowed to recover for 2 days prior to subsequent EEG recording. The adult mice were single housed in order to prevent damage of the implanted electrodes and allowed to recover at least 5 days before EEG recording.

CLC-3 channels = target: T1, CLC-3 channels (Rattus norvegicus, UniProt P51792); assay: Whole-cell Cl− currents in CLC-3-transfected HEK293T cells; assay type: cell-based
T1 construct: host or cells: HEK293T
T1 sequence (P51792 1-760 isoform P51792-2): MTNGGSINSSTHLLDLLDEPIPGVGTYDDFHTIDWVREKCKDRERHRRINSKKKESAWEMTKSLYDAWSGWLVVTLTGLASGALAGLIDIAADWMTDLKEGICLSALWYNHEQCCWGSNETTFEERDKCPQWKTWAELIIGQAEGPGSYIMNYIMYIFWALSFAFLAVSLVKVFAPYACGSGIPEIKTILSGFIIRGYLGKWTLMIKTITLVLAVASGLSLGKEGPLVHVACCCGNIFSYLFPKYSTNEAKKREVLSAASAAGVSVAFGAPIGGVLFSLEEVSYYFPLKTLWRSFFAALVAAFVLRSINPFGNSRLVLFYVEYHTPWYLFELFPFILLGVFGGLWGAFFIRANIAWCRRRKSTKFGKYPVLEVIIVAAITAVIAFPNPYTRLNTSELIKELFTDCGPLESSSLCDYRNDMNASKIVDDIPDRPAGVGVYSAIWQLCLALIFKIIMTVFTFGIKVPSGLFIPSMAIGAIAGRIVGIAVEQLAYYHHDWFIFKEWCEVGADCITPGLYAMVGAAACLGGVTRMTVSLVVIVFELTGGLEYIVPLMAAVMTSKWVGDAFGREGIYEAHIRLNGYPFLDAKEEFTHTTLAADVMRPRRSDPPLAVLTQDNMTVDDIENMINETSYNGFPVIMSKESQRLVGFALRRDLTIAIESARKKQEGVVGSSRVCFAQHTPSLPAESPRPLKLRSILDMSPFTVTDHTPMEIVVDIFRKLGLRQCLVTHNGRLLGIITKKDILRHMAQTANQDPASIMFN

GABAA-R current = GABAA-R current induced by isoguvacine before and after membrane depolarization (gramicidin-perforated recording); assay type: cell-based, mouse; details: isoguvacine 100 μM; depolarization 40 mV, 10 s; NaGcA 20 mM
Procedure: To investigate the effect of such long-lasting epileptiform bursts on GABA function, gramicidin-perforated whole-cell recordings were performed to keep the intracellular Cl− intact in neonatal animals. GABAA receptor (GABAA-R) currents induced by the receptor agonist isoguvacine (100 μM, 50 ms) before and after a membrane-depolarizing shift (40 mV for 10 s) that mimics the epileptiform burst activity. […] FIGS. 16B and 16C.

In the case of `O=C([O-])[C@H](O)[C@@H](O)[C@H](O)[C@H](O)CO.[Na+]` [NaGcA, D-gluconic acid sodium salt], the behavioral seizure score [1] is reported as “mild inhibitory effect”, the “latency of seizure behavior (Racine score 3 and above)” value [1] is reported as “dose-dependently prolonged” and the “KA-induced epileptiform burst activity” value ([2]; 1 μM KA for 2 hrs, 10 mM NaGcA, sodium salt) is reported as “greatly suppressed; also recorded: dramatically suppressed”. For the same compound, the “neurons showing epileptiform activity after CTZ co-treatment” value ([2]; 10 μM CTZ together with 10 mM NaGcA, 3 out of 17 neurons) was 18%, the 4-AP-induced epileptiform activity ([2]; 50 μM 4-AP for 2 hrs, 10 mM NaGcA, sodium salt) was “completely blocked; also recorded: obviously suppressed” and the “CTZ-induced epileptiform burst activity” value ([2]; 10 mM NaGcA, acute application) was “completely blocked”. The “spontaneous epileptiform activity (burst action potentials)” value ([2]; 5-20 mM NaGcA in bath solution (FIG. 1A: 20 mM), sodium salt) was “inhibited spontaneous epileptiform activity; also recorded: stopped immediately”, the “induction of epileptiform activity by CTZ” value ([2]; co-application of 10 μM CTZ and 10 mM NaGcA during induction, sodium salt) was “great reduction; also recorded: lack of burst activity” and the “average frequency and duration of epileptiform bursts” value ([2]; neurons co-treated with CTZ and NaGcA (5 and 10 mM)) was “significantly reduced”. The “KA-induced epileptic burst activities / EEG power in adult animals” value ([3]; listed as gluconate) was “less inhibition”, the “KA-induced epileptic burst activities / EEG power in adult animals” value [3] was “modest effect; also recorded: modestly inhibited” and the “CLC-3-mediated Cl− currents” value (CLC-3 channels; 20 mM NaGcA, at +90 mV) was 544±59 pA. The “CLC-3 channel-mediated Cl− currents (inhibition)” value (CLC-3 channels; 20 mM NaGcA, sodium salt) was “significantly inhibited; also recorded: significantly reduced”, the “CLC-3-mediated Cl− currents after washout of NaGcA” value (CLC-3 channels; after washout, at +90 mV) was 925±124 pA and the “depolarization-induced enhancement of GABAA-R current” value (GABAA-R current) was “strongly inhibited”.
